Patent publication US20250388582A1, “NOVEL BICYCLIC HETEROARYL COMPOUND AND USE THEREOF” (ILDONG PHARMACEUTICAL CO., LTD., priority 2022, published 2025)

Assays:
human GST-PIKFYVE = target: T1, human GST-PIKFYVE (Homo sapiens, UniProt Q9Y2I7); assay: ADP-Glo kinase assay, enzyme inhibition activity against human PIKFYVE (Carna biosciences); type: biochemical; settings: inhibitory activity at final compound concentration 10 nM; 1 hour at room temperature
T1 construct: GST; purchased Carna biosciences 11-118
Method: The enzyme inhibition activity values for the compounds according to Examples against human PIKFYVE were calculated using the ADP-Glo™ kinase assay service of Carna biosciences, Inc. The enzyme activity evaluation method provided by Carna biosciences Inc., is shown below.
Enzyme inhibition activity was evaluated by reacting the compounds according to Examples with human GST-PIKFYVE (11-118, Carna biosciences), which was purified using glutathione Sepharose chromatography. The reaction buffer used was composed of 50 mmol/L MOPS, 1 mmol/L DTT, and pH 7.2, and all reactions of the test distilled water were performed in the buffer.
Compounds were prepared as solutions in 100% DMSO as 100× stocks and adjusted to have a final sample concentration of 10 nM.
The substrate-enzyme reaction for PIKFYVE was performed by mixing 5 μL human GST-PIKFYVE, 5 μL compounds according to Examples, 5 μL enzyme substrate, and 5 μL purified ATP and reacting for 1 hour at room temperature. After the substrate-enzyme reaction, 20 μL ADP-Glo™ Reagent was added and reacted at room temperature for 40 minutes, then 40 μL Kinase Detection Reagent was added and reacted at room temperature for 40 minutes.
After completion of the reaction, the degree of enzyme activity inhibition was measured by luminescence. The fluorescence of the enzyme activity in the solvent control group […] was set to 100%, and the fluorescence of the enzyme activity in the solvent control group without compound treatment was set to 0%. The inhibitory activity of each compound according to Examples was calculated based on these values.

PIKFYVE = target: T2, PIKFYVE (Homo sapiens, UniProt Q9Y2I7); assay: NanoBRET TE Intracellular Kinase Assay, interaction of PIKFYVE and compounds in HEK293 cells; type: cell-based; settings: IC50 class from BRET; HEK293 cells expressing PIKFYVE-NanoLuc; 2 hours incubation
T2 construct: host or cells: HEK293 (ATCC, CRL-1573)
Method: To predict the efficacy of the compounds according to Example on PIKFYVE in humans, the interaction between PIKFYVE and the compounds was tested using the HEK293 cell line derived from human embryonic kidney (ATCC, CRL-1573) via NanoBRETT TE Intracellular Kinase Assay Service of Carna biosciences Inc., (Japan). The evaluation method provided by Carna biosciences Inc., was shown below and the NanoBRET™ TE Intracellular Kinase Assay, K-8 Kit (Promega, CS1810C88) was used.
The HEK-293 cells cultured in Opti-MEM™ I Reduced Serum Medium (Thermo Fisher, 11058-021) were transfected with Transfection Carrier DNA (Promega, E4881), PIKFYVE-NanoLuc Fusion Vector (Promega, CS1810C225), and FuGENE HD Transfection Reagent (Promega, E2311) to produce cells expressing genes combining PIKFYVE and NanoLuc, followed by culturing 100 μl (2×10^5 cells/ml) each in 96-well plates (Corning, 3917).
10× compounds according to Examples or Comparative Examples prepared by concentration in 1× NanoBRET™ tracer reagent and DMSO were reacted in 96-well plates and incubated for 2 hours in a 37° C., 5% CO2 incubator.
After the reaction was completed, 3× Complete NanoBRET™ Nano-Glo Substrate solution was added to each well, and the reaction was allowed to run for 2-3 minutes at room temperature before BRET was measured using a GloMax Discover Multimode Microplate Reader (Promega).

T2 sequence (Q9Y2I7 whole entry): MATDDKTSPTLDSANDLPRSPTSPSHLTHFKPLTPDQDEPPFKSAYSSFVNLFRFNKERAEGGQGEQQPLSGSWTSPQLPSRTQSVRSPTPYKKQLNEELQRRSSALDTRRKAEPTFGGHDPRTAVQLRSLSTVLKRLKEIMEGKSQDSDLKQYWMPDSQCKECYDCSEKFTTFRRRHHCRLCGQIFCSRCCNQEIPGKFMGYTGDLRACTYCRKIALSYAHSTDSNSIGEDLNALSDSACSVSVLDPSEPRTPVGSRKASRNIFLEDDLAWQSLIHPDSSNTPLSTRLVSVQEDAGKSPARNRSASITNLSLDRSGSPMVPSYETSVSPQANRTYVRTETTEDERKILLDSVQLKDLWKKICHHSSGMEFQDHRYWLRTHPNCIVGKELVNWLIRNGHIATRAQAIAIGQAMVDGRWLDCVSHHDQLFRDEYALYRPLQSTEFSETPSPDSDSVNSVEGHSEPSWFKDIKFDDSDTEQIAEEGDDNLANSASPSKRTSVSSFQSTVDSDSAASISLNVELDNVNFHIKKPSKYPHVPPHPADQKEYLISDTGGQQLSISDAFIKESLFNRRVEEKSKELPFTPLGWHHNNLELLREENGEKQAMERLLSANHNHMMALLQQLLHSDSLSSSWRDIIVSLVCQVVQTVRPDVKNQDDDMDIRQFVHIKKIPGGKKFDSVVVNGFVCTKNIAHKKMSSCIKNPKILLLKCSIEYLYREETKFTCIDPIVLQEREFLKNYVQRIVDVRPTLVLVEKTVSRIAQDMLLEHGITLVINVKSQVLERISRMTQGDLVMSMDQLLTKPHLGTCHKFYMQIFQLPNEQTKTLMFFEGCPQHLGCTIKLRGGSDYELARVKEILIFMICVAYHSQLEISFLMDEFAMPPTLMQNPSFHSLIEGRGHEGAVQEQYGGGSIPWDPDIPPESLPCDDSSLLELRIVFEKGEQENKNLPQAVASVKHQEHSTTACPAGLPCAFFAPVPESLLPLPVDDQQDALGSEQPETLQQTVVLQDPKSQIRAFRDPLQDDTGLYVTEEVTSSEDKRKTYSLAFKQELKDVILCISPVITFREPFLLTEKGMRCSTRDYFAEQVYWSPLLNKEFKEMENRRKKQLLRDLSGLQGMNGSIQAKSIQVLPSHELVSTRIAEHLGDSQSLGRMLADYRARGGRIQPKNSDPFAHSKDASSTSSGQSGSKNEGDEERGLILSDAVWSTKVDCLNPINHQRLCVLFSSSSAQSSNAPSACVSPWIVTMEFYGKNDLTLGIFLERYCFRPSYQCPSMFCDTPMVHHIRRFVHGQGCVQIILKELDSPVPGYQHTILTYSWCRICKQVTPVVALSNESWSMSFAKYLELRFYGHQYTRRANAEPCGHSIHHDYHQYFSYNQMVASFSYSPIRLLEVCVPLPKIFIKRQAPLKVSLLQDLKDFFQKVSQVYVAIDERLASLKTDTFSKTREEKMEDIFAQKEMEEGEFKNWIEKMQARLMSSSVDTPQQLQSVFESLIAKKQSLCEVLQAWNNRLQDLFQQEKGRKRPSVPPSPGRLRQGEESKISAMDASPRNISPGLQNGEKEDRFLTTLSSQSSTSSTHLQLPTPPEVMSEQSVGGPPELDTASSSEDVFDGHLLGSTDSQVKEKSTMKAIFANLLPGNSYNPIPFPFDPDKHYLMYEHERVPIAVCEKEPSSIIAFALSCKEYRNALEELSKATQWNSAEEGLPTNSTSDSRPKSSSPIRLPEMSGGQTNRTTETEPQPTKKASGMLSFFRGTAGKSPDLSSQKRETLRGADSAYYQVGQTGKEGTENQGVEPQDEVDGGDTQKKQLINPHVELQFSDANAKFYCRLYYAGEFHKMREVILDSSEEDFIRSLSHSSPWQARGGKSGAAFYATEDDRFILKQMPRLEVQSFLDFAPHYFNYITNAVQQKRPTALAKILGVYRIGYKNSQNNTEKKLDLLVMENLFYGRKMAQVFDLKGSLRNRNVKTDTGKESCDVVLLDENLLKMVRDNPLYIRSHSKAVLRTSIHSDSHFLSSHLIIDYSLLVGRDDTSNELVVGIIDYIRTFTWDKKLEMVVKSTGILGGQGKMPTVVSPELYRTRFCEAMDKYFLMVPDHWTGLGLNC
T1 sequence (Q9Y2I7 whole entry): as above

ADP-Glo kinase assay (%, 10 nM) (human GST-PIKFYVE)	IC50 (PIKFYVE)	Structure (SMILES)
65.48%	0.02 to 0.03 µM	Cc1cccc(/C=N/Nc2nc(N3CCOCC3)nc3c2ncn3CC(=O)c2cccnc2)c1 [Example 28, (E)-2-(6-(2-(3-methylbenzylidene)hydrazinyl)-2-morpholino-9H-purin-9-yl)-1-(pyridin-3-yl)ethan-1-one]
79.77%	≤ 0.01 µM	Cc1cccc(/C=N/Nc2nc(N3CCOCC3)nc3c2ncn3-c2ccc(C#N)cn2)c1 [Example 146, (E)-6-(6-(2-(3-methylbenzylidene)hydrazinyl)-2-morpholino-9H-purin-9-yl)nicotinonitrile]
82.62%	≤ 0.01 µM	Cc1cccc(-c2ccn(-c3nc(N4CCOCC4)nc4c3ncn4-c3ccncc3)n2)c1 [Example 107, 4-(9-(pyridin-4-yl)-6-(3-(m-tolyl)-1H-pyrazol-1-yl)-9H-purin-2-yl)morpholine]
78.53%	0.01 to 0.02 µM	Cc1cccc(/C=N/Nc2nc(N3CCOCC3)nc3c2ncn3Cc2ccccn2)c1 [Example 20, (E)-4-(6-(2-(3-methylbenzylidene)hydrazinyl)-9-(pyridin-2-ylmethyl)-9H-purin-2-yl)morpholine]
69.71%	0.02 to 0.03 µM	Cc1cccc(/C=N/Nc2nc(N3CCOCC3)nc3c2ncn3CC2(C)COC2)c1 [Example 74, (E)-4-(6-(2-(3-methylbenzylidene)hydrazinyl)-9-((3-methyloxetan-3-yl)methyl)-9H-purin-2-yl)morpholine]
68.30%	0.01 to 0.02 µM	COc1ccc(-c2cccc3c(N/N=C/c4cccc(C)c4)nc(N4CCOCC4)nc23)cc1 [Example 213, (E)-4-(8-(4-methoxyphenyl)-4-(2-(3-methylbenzylidene)hydrazinyl)quinazolin-2-yl)morpholine]
63.65%	0.01 to 0.02 µM	Cc1cccc(/C=N/Nc2nc(N3CCOCC3)nc3c2ncn3C2CCN(C(=O)c3cccnc3)CC2)c1 [Example 87, (E)-(4-(6-(2-(3-methylbenzylidene)hydrazinyl)-2-morpholino-9H-purin-9-yl)piperidin-1-yl)(pyridin-3-yl)methanone]
68.18%	0.01 to 0.02 µM	Cc1cccc(/C=N/Nc2nc(N3CCOCC3)nc3c2ncn3-c2ccc(C(F)(F)F)cc2)c1 [Example 104, (E)-4-(6-(2-(3-methylbenzylidene)hydrazinyl)-9-(4-(trifluoromethyl)phenyl)-9H-purin-2-yl)morpholine]
70.11%	0.01 to 0.02 µM	Cc1cccc(/C=N/Nc2nc(N3CCOCC3)nc3c2ncn3CC(=O)c2ccc(C#N)cc2)c1 [Example 35, (E)-4-(2-(6-(2-(3-methylbenzylidene)hydrazinyl)-2-morpholino-9H-purin-9-yl)acetyl)benzonitrile]

The next lines start with the molecule.

Structure (SMILES)	ADP-Glo kinase assay (%, 10 nM) (human GST-PIKFYVE)	IC50 (PIKFYVE)
Cc1cccc(/C=N/Nc2nc(N3CCOCC3)nc3c2ncn3CC(=O)c2ccc(F)cn2)c1 [Example 53, (E)-1-(5-fluoropyridin-2-yl)-2-(6-(2-(3-methylbenzylidene)hydrazinyl)-2-morpholino-9H-purin-9-yl)ethan-1-one]	70.90%	0.02 to 0.03 µM
Cc1cccc(/C=N/Nc2nc(N3CCOCC3)nc3c2ncn3C2CCN(C(=O)N(C)C)CC2)c1 [Example 90, (E)-N,N-dimethyl-4-(6-(2-(3-methylbenzylidene)hydrazinyl)-2-morpholino-9H-purin-9-yl)piperidine-1-carboxamide]	66.88%	0.02 to 0.03 µM
Cc1cccc(/C=N/Nc2nc(N3CCOCC3)nc3c2ncn3CC(=O)c2cccc(C#N)c2)c1 [Example 36, (E)-3-(2-(6-(2-(3-methylbenzylidene)hydrazinyl)-2-morpholino-9H-purin-9-yl)acetyl)benzonitrile]	76.04%	0.01 to 0.02 µM
Cc1ccc(-n2cnc3c(N/N=C/c4cccc(C)c4)nc(N4CCOCC4)nc32)nc1 [Example 143, (E)-4-(6-(2-(3-methylbenzylidene)hydrazinyl)-9-(5-methylpyridin-2-yl)-9H-purin-2-yl)morpholine]	90.79%	≤ 0.01 µM
COc1cccc(-n2cnc3c(-n4ccc(-c5cccc(C)c5)n4)nc(N4CCOCC4)nc32)c1 [Example 137, 4-(9-(3-methoxyphenyl)-6-(3-(m-tolyl)-1H-pyrazol-1-yl)-9H-purin-2-yl)morpholine]	81.44%	≤ 0.01 µM
COc1ccc(-n2cnc3c(N/N=C/c4cccc(C)c4)nc(N4CCOCC4)nc32)cn1 [Example 113, (E)-4-(9-(6-methoxypyridin-3-yl)-6-(2-(3-methylbenzylidene)hydrazinyl)-9H-purin-2-yl)morpholine]	87.10%	≤ 0.01 µM
Cc1cccc(/C=N/Nc2nc(N3CCOCC3)nc3c2ncn3C2CCN(S(C)(=O)=O)CC2)c1 [Example 92, (E)-4-(6-(2-(3-methylbenzylidene)hydrazinyl)-9-(1-(methylsulfonyl)piperidin-4-yl)-9H-purin-2-yl)morpholino]	61.82%	0.02 to 0.03 µM
C(=N\Nc1nc(N2CCOCC2)nc2c1ncn2-c1ccncc1)/c1c[nH]c2ccccc12 [Example 112, (E)-4-(6-(2-((1H-indol-3-yl)methylene)hydrazinyl)-9-(pyridin-4-yl)-9H-purin-2-yl)morpholine]	89.10%	≤ 0.01 µM
Cc1cccc(/C=N/Nc2nc(N3CCOCC3)nc3c2ncn3-c2ccc(C)nc2)c1 [Example 110, (E)-4-(6-(2-(3-methylbenzylidene)hydrazinyl)-9-(6-methylpyridin-3-yl)-9H-purin-2-yl)morpholine]	88.60%	≤ 0.01 µM
Cc1cccc(/C=N/n2cnc3c(Nc4cccnc4)nc(N4CCOCC4)nc32)c1 [Example 191, (E)-9-((3-methylbenzylidene)amino)-2-morpholino-N-(pyridin-3-yl)-9H-purin-6-amine]	76.59%	0.01 to 0.02 µM
Cc1cccc(/C=N/Nc2nc(N3CCOCC3)nc3c2ncn3C2CCN(C(=O)c3ccncc3)CC2)c1 [Example 93, (E)-(4-(6-(2-(3-methylbenzylidene)hydrazinyl)-2-morpholino-9H-purin-9-yl)piperidin-1-yl)(pyridin-4-yl)methanone]	66.78%	0.02 to 0.03 µM
Cc1cccc(/C=N/Nc2nc(N3CCOCC3)nc3c2ncn3CC(=O)c2cc(C(F)(F)F)ccn2)c1 [Example 52, (E)-2-(6-(2-(3-methylbenzylidene)hydrazinyl)-2-morpholino-9H-purin-9-yl)-1-(4-(trifluoromethyl)pyridin-2-yl)ethan-1-one]	67.10%	0.02 to 0.03 µM
Cc1cccc(/C=N/Nc2nc(N3CCOCC3)nc3c2ncn3-c2ccc(Cl)cn2)c1 [Example 116, (E)-4-(9-(5-chloropyridin-2-yl)-6-(2-(3-methylbenzylidene)hydrazinyl)-9H-purin-2-yl)morpholine]	87.75%	≤ 0.01 µM
Cc1cccc(/C=N/Nc2nc(N3CCOCC3)nc3c2ncn3-c2ccnc(O)c2)c1 [Example 102, (E)-4-(6-(2-(3-methylbenzylidene)hydrazinyl)-2-morpholino-9H-purin-9-yl)pyridin-2-ol]	91.19%	≤ 0.01 µM
Cc1cccc(/C=N/Nc2nc(N3CCOCC3)nc3c2ncn3CC(=O)c2ccccc2)c1 [Example 22, (E)-2-(6-(2-(3-methylbenzylidene)hydrazinyl)-2-morpholino-9H-purin-9-yl)-1-phenylethan-1-one]	66.19%	0.01 to 0.02 µM
COc1ccc(-n2cnc3c(N/N=C/c4cccc(C)c4)nc(N4CCOCC4)nc32)nc1 [Example 108, (E)-4-(9-(5-methoxypyridin-2-yl)-6-(2-(3-methylbenzylidene)hydrazinyl)-9H-purin-2-yl)morpholine]	80.35%	≤ 0.01 µM
